Literature values, collected in patent publication US20140100272A1, “METHODS OF ADMINISTERING COMPOSITIONS COMPRISING DOCOSAPENTAENOIC ACID” (Matinas BioPharma, Inc., priority 2012, published 2014).

Settings: in vivo

For `CC[C@H](C)C(=O)O[C@H]1C[C@@H](C)C=C2C=C[C@H](C)[C@H](CC[C@@H]3C[C@@H](O)CC(=O)O3)[C@H]21` [lovastatin], the absorbed at rates is given as “about 30%”.
